Source: article PMC7734798 (ACS Medicinal Chemistry Letters, 2020)
Values joined by “and” are separate entries in the source; they are usually repeats but may differ in a detail not shown here. Equal entries are not always repeated. Where two headings read alike, the source gives them in different places.

Key:
[1] = PAMPA
[2] = system: primary rat cerebellar granule neurons (CGNs); details: for cell survival/death in CGNs, % mean ± SE of controls (MTT): 24 h treatment
[3] = system: human liver carcinoma immortalized cell line (HepG2); details: 24 h treatment
CNPase = experiment: Oli-Neu differentiation marker CNPase expression (Western blot); assay type: cell-based, mouse; details: Oli-Neu cells, 5 μM, 72 h
Source text: OPC proliferation and migration to the CNS injury site as well as their differentiation are critical steps toward remyelination in MS. HDAC activity plays a crucial role in OPC proliferation/differentiation; therefore, HDAC modulation is widely considered a promising therapeutic target for MS.[30] […] Therefore, we tested the effect of our compounds on OPC proliferation and differentiation, through cell counting, measure of filaments, and analysis of proliferation/differentiation markers (Figure 7). […]
After 24 hours, the viability was evaluated through the MTT assay. […]
(§1) 48 hours, for cell counting and measure of filaments, 5 random images for each condition were acquired with an Eclipse TS100 (Nikon) microscope using a 10X objective. Cells number and filament length were measured with Fiji ImageJ2 software. After 48 hours for proliferation and 72 hours of treatment for differentiation analysis, cells were lysed in ice-cold lysis buffer (50 mM Tris-HCl pH 7.4, 1% SDS, 0.05% protease inhibitor cocktail; all from Sigma-Aldrich) and protein content was determined by using the Lowry method. […]

Olig2 = experiment: Oli-Neu proliferation marker Olig2 expression (Western blot); assay type: cell-based, mouse; details: Oli-Neu cells, 5 μM, 48 h
Source text: (§2) OPC proliferation and migration to the CNS injury site as well as their differentiation are critical steps toward remyelination in MS. HDAC activity plays a crucial role in OPC proliferation/differentiation; therefore, HDAC modulation is widely considered a promising therapeutic target for MS.[30] […] Therefore, we tested the effect of our compounds on OPC proliferation and differentiation, through cell counting, measure of filaments, and analysis of proliferation/differentiation markers (Figure 7).
(§3) Oli-Neu cells were grown in SATO medium (DMEM medium, 2 mM glutamine, 10 μg/ml insulin, 5.5 μg/ml transferrin, 38.72 nM sodium selenite, 100 µM putrescine, 520 nM L-thyroxine (T4), 500 nM triiodo-L-thyronine (T3), 200 nM progesterone, 25 μg/ml of gentamycin) supplemented with 1% heat-inactivated horse serum (HS) in a humidified, 5% CO2 incubator at 37°C. Cell culture medium and all chemicals were from Sigma-Aldrich, except for insulin-transferrin-sodium selenite 100X supplement (Life Technologies Corporation). Cells were plated on 96 well plates, previously coated with 10 μg/mL poly-L-lysine (Sigma-Aldrich; 10 μg/ml) at the density of 2.5 x 10 4/0.2 mL medium/well and treated with increasing concentrations of the compounds (0.5, 1, 5 and 10 μM).
After 24 hours, the viability was evaluated through the MTT assay.
(§4) Oli-Neu cells proliferation and differentiation assay
as §1

Oli-Neu cells = experiment: Oli-Neu cell proliferation and differentiation assay: cell counting and measure of filaments; assay type: cell-based, mouse; details: 5 μM, 48 h
Source text: as §2
as §3, with “μM). […]” for “μM).”
as §4
48 hours, for cell counting and measure of filaments, 5 random images for each condition were acquired with an Eclipse TS100 (Nikon) microscope using a 10X objective. Cells number and filament length were measured with Fiji ImageJ2 software. […]

[4] = PAMPA-BBB permeation assay; details: PAMPA-BBB prediction

SMILES	cell survival/death in CGNs, % mean ± SE of controls (MTT) ([2]; 5 μM) [%]	cell survival/death in CGNs, % mean ± SE of controls (MTT) ([2]; 10 μM) [%]	cell survival/death in CGNs, % mean ± SE of controls (MTT) ([2]; 25 μM) [%]	cell survival/death in CGNs, % mean ± SE of controls (MTT) ([2]; 50 μM)	cell survival/death in HepG2 cells, % mean ± SE of controls (MTT) ([3]; 5 μM) [%]	cell survival/death in HepG2 cells, % mean ± SE of controls (MTT) ([3]; 10 μM) [%]	cell survival/death in HepG2 cells, % mean ± SE of controls (MTT) ([3]; 25 μM) [%]	cell survival/death in HepG2 cells, % mean ± SE of controls (MTT) ([3]; 50 μM) [%]	other results
Nc1c2c(nc3ccccc13)CCCC2 [tacrine]	–	–	–	–	–	–	–	–	BBB penetration estimation, CNS (+/−) [1]: CNS +
CC/C=C\C/C=C\C/C=C\CCCCCCCC(=O)O [ALA, α-linolenic acid, reference compound]	93 ± 13	97 ± 3	79 ± 12	45% and 45 ± 5 ^b %	109 ± 17	90 ± 5	91 ± 13	92 ± 9	–
CC/C=C\C/C=C\C/C=C\CCCCCCCC(=O)OCCNC(=O)C(CCC)CCC [compound 3]	119 ± 17	116 ± 3	99 ± 17	41% and 41 ± 6 ^b %	86 ± 10	92 ± 3	84 ± 10	75 ± 13	–
CCCC(CCC)C(=O)O [VPA, valproic acid, reference compound]	–	–	–	–	–	–	–	–	expression of CNPase, marker of differentiation (CNPase): significant increase; expression of Olig2, marker of OPCs proliferation (Olig2): marked decrease; neurotoxicity profile in CGNs (in words) ([2]; 5-50 μM, 24 h): negligible neurotoxicity; Oli-Neu cell number (Oli-Neu cells): decrease cell number; Oli-Neu filament length (Oli-Neu cells): parallel increase in filament length
CC/C=C\C/C=C\C/C=C\CCCCCCCC(=O)OCCOC(=O)C(CCC)CCC [compound 4]	118 ± 16	114 ± 3	71 ± 8	45% and 45 ± 8 ^b %	95 ± 14	99 ± 5	75 ± 12	74 ± 12	–
CNC(=C[N+](=O)[O-])NCCSCc1ccc(CN(C)C)o1 [ranitidine, reference compound]	–	–	–	–	–	–	–	–	BBB penetration estimation, CNS (+/−) [4]: CNS –
